# Experimental data: patent publication US9663528B2, “Substituted 1,2,3,4,6,8,12,12a-octahydro-1,4-methanodipyrido[1,2-a:1',2'-d]pyrazines and methods for treating viral infections” (priority 2012, dated 2017)
# Test: Cytotoxicity (CC50) in MT-4 cells, mock-infected, CellTiter-Glo
# Conditions: human
# Protocol: For the antiviral assay utilizing MT4 cells, 0.4 μL of […] test concentration of 3-fold serially diluted compound in DMSO was added to 40 μL of cell growth medium (RPMI 1640, 10% FBS, 1% penicilline/Streptomycine, 1% L-Glutamine, 1% HEPES) in each well of 384-well assay plates (10 concentrations) in quidruplicate.
# 1 mL aliquots of 2×10^6 MT4 cells are pre-infected for 1 and 3 hours respectively at 37° C. with 25 μL (MT4) or of either cell growth medium (mock-infected) or a fresh 1:250 dilution of an HIV-IIIb concentrated ABI stock (0.004 m.o.i. for MT4 cells). Infected and uninfected cells are diluted in cell growth medium and 35 μL of 2000 (for MT4) cells is added to each well of the assay plates.
# Assay plates were then incubated in a 37° C. incubator. After 5 days of incubation, 25 μL of 2× concentrated CellTiter-Glo™ Reagent (catalog #G7573, Promega Biosciences, Inc., Madison, Wis.) was added to each well of the assay plate. Cell lysis was carried out by incubating at room temperature for 2-3 minutes, and then chemiluminescence was read using the Envision reader (PerkinElmer).
row,SMILES,CC50 at 5 days
1,"O=C(NC1(c2ccc(F)cc2F)CCCCC1)c1cn2c(c(O)c1=O)C(=O)N1C(C2)O[C@H]2CC[C@@H]1C2 (stereo partly drawn) [Compound 34, (2S,5R)-N-(1-(2,4-difluorophenyl)cyclohexyl)-8-hydroxy-7,9-dioxo-2,3,4,5,7,9,13,13a-octahydro-2,5-methanopyrido[1′,2′:4,5]pyrazino[2,1-b][1,3]oxazepine-10-carboxamide]",3580 nM

# Same assay, conditions: human, CC50 nM in MT-4
row,SMILES,CC50 at 5 days
1,"O=C(NCc1ccc(F)cc1F)c1cn2c(c(O)c1=O)C(=O)N1[C@@H]3CC[C@@H](C3)O[C@H]1C2 (racemic) [Compound 1, N-(2,4-difluorobenzyl)-8-hydroxy-7,9-dioxo-2,3,4,5,7,9,13,13a-octahydro-2,5-methanopyrido[1′,2′:4,5]pyrazino[2,1-b][1,3]oxazepine-10-carboxamide]",5820 nM
2,"C[C@@H](NC(=O)c1cn2c(c(O)c1=O)C(=O)N1[C@H]3CC[C@H](C3)O[C@@H]1C2)c1ccc(F)cc1F [Compound 12, (2R,5S,13aR)-N—((R)-1-(2,4-difluorophenyl)ethyl)-8-hydroxy-7,9-dioxo-2,3,4,5,7,9,13,13a-octahydro-2,5-methanopyrido[1′,2′:4,5]pyrazino[2,1-b][1,3]oxazepine-10-carboxamide]",3340 nM
3,"C[C@H](NC(=O)c1cn2c(c(O)c1=O)C(=O)N1[C@H]3CC[C@H](C3)O[C@@H]1C2)c1ccc(F)cc1F [Compound 14, (2R,5S,13aR)-N—((S)-1-(2,4-difluorophenyl)ethyl)-8-hydroxy-7,9-dioxo-2,3,4,5,7,9,13,13a-octahydro-2,5-methanopyrido[1′,2′:4,5]pyrazino[2,1-b][1,3]oxazepine-10-carboxamide]",4940 nM
4,"C[C@H](NC(=O)c1cn2c(c(O)c1=O)C(=O)N1[C@@H]3CC[C@@H](C3)O[C@H]1C2)c1ccc(F)cc1 [Compound 21, (2S,5R,13aS)-N—((S)-1-(4-fluorophenyl)ethyl)-8-hydroxy-7,9-dioxo-2,3,4,5,7,9,13,13a-octahydro-2,5-methanopyrido[1′,2′:4,5]pyrazino[2,1-b][1,3]oxazepine-10-carboxamide]",13000 nM
5,"C[C@H](NC(=O)c1cn2c(c(O)c1=O)C(=O)N1[C@H]3CC[C@H](C3)O[C@@H]1C2)c1ccc(F)cc1 [Compound 22, (2R,5S,13aR)-N—((S)-1-(4-fluorophenyl)ethyl)-8-hydroxy-7,9-dioxo-2,3,4,5,7,9,13,13a-octahydro-2,5-methanopyrido[1′,2′:4,5]pyrazino[2,1-b][1,3]oxazepine-10-carboxamide]",4430 nM
6,"O=C(NCc1cc(F)cc(F)c1)c1cn2c(c(O)c1=O)C(=O)N1[C@@H]3CC[C@@H](C3)O[C@H]1C2 [Compound 24, (2S,5R,13aS)-N-(3,5-difluorobenzyl)-8-hydroxy-7,9-dioxo-2,3,4,5,7,9,13,13a-octahydro-2,5-methanopyrido[1′,2′:4,5]pyrazino[2,1-b][1,3]oxazepine-10-carboxamide]",12100 nM
7,"O=C(NCc1ccc(F)c(C(F)(F)F)c1)c1cn2c(c(O)c1=O)C(=O)N1[C@@H]3CC[C@@H](C3)O[C@H]1C2 [Compound 25, (2S,5R,13aS)-N-(4-fluoro-3-(trifluoromethyl)benzyl)-8-hydroxy-7,9-dioxo-2,3,4,5,7,9,13,13a-octahydro-2,5-methanopyrido[1′,2′:4,5]pyrazino[2,1-b][1,3]oxazepine-10-carboxamide]",5230 nM
8,"O=C(NCc1ccc(Cl)c(F)c1)c1cn2c(c(O)c1=O)C(=O)N1[C@@H]3CC[C@@H](C3)O[C@H]1C2 [Compound 26, (2S,5R,13aS)-N-(4-chloro-3-fluorobenzyl)-8-hydroxy-7,9-dioxo-2,3,4,5,7,9,13,13a-octahydro-2,5-methanopyrido[1′,2′:4,5]pyrazino[2,1-b][1,3]oxazepine-10-carboxamide]",8840 nM
9,"O=C(NC1(c2ccc(F)cc2F)CC1)c1cn2c(c(O)c1=O)C(=O)N1C(C2)O[C@H]2CC[C@@H]1C2 (stereo partly drawn) [Compound 27, (2S,5R)-N-(1-(2,4-difluorophenyl)cyclopropyl)-8-hydroxy-7,9-dioxo-2,3,4,5,7,9,13,13a-octahydro-2,5-methanopyrido[1′,2′:4,5]pyrazino[2,1-b][1,3]oxazepine-10-carboxamide]",8750 nM
10,"O=C(NC1(c2ccc(F)cc2F)CC1)c1cn2c(c(O)c1=O)C(=O)N1C(C2)O[C@@H]2CC[C@H]1C2 (stereo partly drawn) [Compound 31, (2R,5S)-N-(1-(2,4-difluorophenyl)cyclopropyl)-8-hydroxy-7,9-dioxo-2,3,4,5,7,9,13,13a-octahydro-2,5-methanopyrido[1′,2′:4,5]pyrazino[2,1-b][1,3]oxazepine-10-carboxamide]",4520 nM
11,"O=C(NC1(c2ccc(F)cc2F)CCOCC1)c1cn2c(c(O)c1=O)C(=O)N1C(C2)O[C@H]2CC[C@@H]1C2 (stereo partly drawn) [Compound 35, (2S,5R)-N-(4-(2,4-difluorophenyl)tetrahydro-2H-pyran-4-yl)-8-hydroxy-7,9-dioxo-2,3,4,5,7,9,13,13a-octahydro-2,5-methanopyrido[1′,2′:4,5]pyrazino[2,1-b][1,3]oxazepine-10-carboxamide]",15500 nM
12,"O=C(NCc1ncccc1C(F)(F)F)c1cn2c(c(O)c1=O)C(=O)N1[C@@H]3CC[C@@H](C3)O[C@H]1C2 [Compound 49, (2S,5R,13aS)-8-hydroxy-7,9-dioxo-N-((3-(trifluoromethyl)pyridin-2-yl)methyl)-2,3,4,5,7,9,13,13a-octahydro-2,5-methanopyrido[1′,2′:4,5]pyrazino[2,1-b][1,3]oxazepine-10-carboxamide]",52200 nM
13,"O=C(NCc1ccc(F)cc1OC1CC1)c1cn2c(c(O)c1=O)C(=O)N1[C@@H]3CC[C@@H](C3)O[C@H]1C2 [Compound 52, (2S,5R,13aS)-N-(2-cyclopropoxy-4-fluorobenzyl)-8-hydroxy-7,9-dioxo-2,3,4,5,7,9,13,13a-octahydro-2,5-methanopyrido[1′,2′:4,5]pyrazino[2,1-b][1,3]oxazepine-10-carboxamide]",12900 nM
14,"O=C(NCc1ccc(F)cc1OC1CC1)c1cn2c(c(O)c1=O)C(=O)N1[C@H]3CC[C@H](C3)O[C@@H]1C2 [Compound 53, (2R,5S,13aR)-N-(2-cyclopropoxy-4-fluorobenzyl)-8-hydroxy-7,9-dioxo-2,3,4,5,7,9,13,13a-octahydro-2,5-methanopyrido[1′,2′:4,5]pyrazino[2,1-b][1,3]oxazepine-10-carboxamide]",3350 nM
15,"O=C(NCc1ccc(F)cc1C(F)(F)F)c1cn2c(c(O)c1=O)C(=O)N1[C@H]3CC[C@H](C3)O[C@@H]1C2 [Compound 62, (2R,5S,13aR)-N-(4-fluoro-2-(trifluoromethyl)benzyl)-8-hydroxy-7,9-dioxo-2,3,4,5,7,9,13,13a-octahydro-2,5-methanopyrido[1′,2′:4,5]pyrazino[2,1-b][1,3]oxazepine-10-carboxamide]",3490 nM
16,"O=C(NCc1cc(Cl)c(F)cc1F)c1cn2c(c(O)c1=O)C(=O)N1[C@H]3CC[C@H](C3)O[C@@H]1C2 [Compound 65, (2R,5S,13aR)-N-(5-chloro-2,4-difluorobenzyl)-8-hydroxy-7,9-dioxo-2,3,4,5,7,9,13,13a-octahydro-2,5-methanopyrido[1′,2′:4,5]pyrazino[2,1-b][1,3]oxazepine-10-carboxamide]",2510 nM
